In patent publication US10017506B2, “ATX modulating agents” (BIOGEN MA INC., priority 2012, dated 2018):
pIC50: −log10 of the molar value.

These compounds were tested against T1, Human ATX protein (Homo sapiens, UniProt Q13822) (assay: ATX biochemical FRET assay with FS-3 substrate). Conditions: FRET substrate FS-3 2 μM, ATX 1.0 μg/mL, 30 minutes pre-incubation, 2 hours at room temperature; read-out: IC50.
T1 construct: made in house
Excerpt: ATX (Autotaxin) is a 125 KDa glycoprotein with lysophospholipase D (LPLD) activity that generates the bioactive lipid lysophosphatidic acid (LPA) from lysophosphatidylcholine (LPC). The ATX biochemical assay utilizes a FRET (fluorescence resonance energy transfer) technology platform. The fluorescence signal of FRET substrate FS-3 is quenched due to intra-molecular FRET of a fluorophore to a non-fluorescing quencher (Ferguson, C. G., et al., Org Lett. 2006 May 11; 8(10): 2023-2026, which is incorporated by reference in its entirety). ATX catalyzes the hydrolysis of the substrate which separates the dabsyl quencher from the fluorescein reporter, which becomes fluorescent. The reaction is monitored by a SpectraMax M5 (Molecular Devices, Sunnyvale, Calif.) with at excitation wavelength 485 nm and emission wavelength […].
Fatty acid free-BSA (Sigma A8806): 10 mg/mL in H2O, stored at 4° C.
2×ATX assay buffer: 100 mM Tris, 280 mM NaCl, 10 mM KCl, 2 mM CaCl2, 2 mM MgCl2, pH 7.4.
Human ATX protein: expressed and purified in house. Stored at −80° C.
Substrate FS-3 (Echelon, L-2000): 100 μg in 77.74 μL H2O (1 mM stock), stored at −20° C.
384-well flat bottom plates—Corning #3575.
Compound dilution—All compounds were provided at 10 mM in 100% DMSO. In the first well, 2 μL of 10 mM compound was added to 78 μL of DMSO (1:40 dilution). In subsequent wells 3-fold dilution (total 10 dilutions) were performed.
1×ATX assay buffer was made up with a final concentration of 1 mg/mL fatty acid free-BSA using 2×ATX assay buffer, 10 mg/ml fatty acid free-BSA and ddH2O.
ATX protein was diluted with 1×ATX assay buffer to a concentration of 1.32 μg/mL (1.32×). 38 μL was added per well to the assay plate. The final concentration of ATX in the reaction as 1.0 μg/mL.
2 μL per well of compounds was transferred to provide the desired concentration. The plate was centrifuged, then incubated at room temperature for 30 minutes on the shaker.
Then, 10 μL was added per well to the assay plate. […] The plate was centrifuged. The plate was kept shaking at room temperature for 2 hours. Because FS-3 substrate is light sensitive, plates were kept covered and protected from light.
Fluorescence was measured using SpectraMax M5 (excitation at 485 nm/emission at 538 nm, top read).
In the case of CC[C@H]1CC[C@@H](Oc2ccc3ccc([C@H](C)N[C@@H]4C[C@H](C(=O)O)C4(C)C)cc3c2C(F)(F)F)CC1 [Example 117b, (1S,3R)-3-(((S)-1-(7-((cis-4-ethylcyclohexyl)oxy)-8-(trifluoromethyl)naphthalen-2-yl)ethyl)amino)-2,2-dimethylcyclobutanecarboxylic acid], the pIC50 was at least 7.00.
CC[C@H]1CC[C@@H](Oc2ccc3ccc(C(C)N[C@H]4CC[C@@H](C(=O)O)CC4)cc3c2C(F)(F)F)CC1 (stereo partly drawn) [Example 134, cis-4-((1-(7-((cis-4-ethylcyclohexyl)oxy)-8-(trifluoromethyl)naphthalen-2-yl)ethyl)amino)cyclohexanecarboxylic acid] was tested, and the pIC50 was at least 7.00.
Compound CC[C@H]1CC[C@@H](Oc2ccc3ccc(CN4CCC(C(=O)O)CC4)cc3c2C(F)(F)F)CC1 [Example 50, 1-((7-((cis-4-ethylcyclohexyl)oxy)-8-(trifluoromethyl)naphthalen-2-yl)methyl)piperidine-4-carboxylic acid] has a pIC50 of at least 6.30.
CC[C@H]1CC[C@@H](Oc2ccc3ccc(C(C)N[C@@H]4C[C@H](C(=O)O)C4(C)C)cc3c2C(F)(F)F)CC1 (stereo partly drawn) [Example 115, (1S,3R)-3-((1-(7-((cis-4-ethylcyclohexyl)oxy)-8-(trifluoromethyl)naphthalen-2-yl)ethyl)amino)-2,2-dimethylcyclobutanecarboxylic acid] gave a pIC50 of at least 7.00.
Work on CC[C@H]1CC[C@@H](Oc2ccc3ccc([C@@H](C)N[C@H]4CC[C@@H](C(=O)O)CC4)cc3c2C(F)(F)F)CC1 [Example 135b, cis-4-(((R)-1-(7-((cis-4-ethylcyclohexyl)oxy)-8-(trifluoromethyl)naphthalen-2-yl)ethyl)amino)cyclohexanecarboxylic acid] yielded a pIC50 of at least 6.60.
CC(c1ccc2ccc(O[C@H]3CC[C@@H](C)CC3)c(C(F)(F)F)c2c1)N1CCC(C(=O)O)CC1 (stereo partly drawn) [Example 80, 1-(1-(7-((cis-4-methylcyclohexyl)oxy)-8-(trifluoromethyl)naphthalen-2-yl)ethyl)piperidine-4-carboxylic acid] gave a pIC50 of at least 6.60.
With CC(C)(C)[C@H]1CC[C@H](Nc2cc3cc(C(=O)N[C@H]4CC[C@@H](C(=O)O)CC4)ccc3cn2)CC1 [Example 154, cis-4-(3-((trans-4-(tert-butyl)cyclohexyl)amino)isoquinoline-6-carboxamido)cyclohexane carboxylic acid] the pIC50 was at least 7.00.
Compound CC1(C)C(NCc2ccc3ccc(O[C@H]4CC[C@@H](C)CC4)c(C(F)(F)F)c3c2)CC1C(=O)O (stereo partly drawn) [Example 78, 2,2-dimethyl-3-(((7-((cis-4-methylcyclohexyl)oxy)-8-(trifluoromethyl)naphthalen-2-yl)methyl)amino)cyclobutanecarboxylic acid] has a pIC50 of at least 6.60.
Work on CC(c1ccc2ccc(O[C@H]3CC[C@@H](C(F)(F)F)CC3)c(C(F)(F)F)c2c1)N1CCC(C(=O)O)CC1 (stereo partly drawn) [Example 44, 1-(1-(8-(trifluoromethyl)-7-((cis-4-(trifluoromethyl)cyclohexyl)oxy)naphthalen-2-yl)ethyl)piperidine-4-carboxylic acid] yielded a pIC50 of at least 7.00.
CC[C@H]1CC[C@@H](Oc2ccc3ccc(C(C)N4CCC(C(=O)O)CC4)cc3c2C#N)CC1 (stereo partly drawn) [Example 72, 1-(1-(8-cyano-7-((cis-4-ethylcyclohexyl)oxy)naphthalen-2-yl)ethyl)piperidine-4-carboxylic acid] showed a pIC50 of at least 6.30.
CC[C@H]1CC[C@@H](Oc2ccc3ccc(C(C)N[C@H]4C[C@@H](C(=O)O)C4(C)C)cc3c2C(F)(F)F)CC1 (stereo partly shown) [Example 116] gave a pIC50 of at least 7.00.

Same assay, conditions: IC50, FRET substrate FS-3 2 μM, ATX 1.0 μg/mL, 30 minutes pre-incubation, 2 hours at room temperature
With CC(c1ccc2ccc(O[C@H]3CC[C@@H](C)CC3)c(C(F)F)c2c1)N1C2CCCC1CC(C(=O)O)C2 (stereo partly drawn) [Example 88, 9-(1-(8-(difluoromethyl)-7-((cis-4-methylcyclohexyl)oxy)naphthalen-2-yl)ethyl)-9-azabicyclo[3.3.1]nonane-3-carboxylic acid] the pIC50 was at least 7.00.
CCC(c1ccc2ccc(O[C@H]3CC[C@@H](C(F)(F)F)CC3)c(C#N)c2c1)N1C2CCCC1CC(C(=O)O)C2 (stereo partly drawn) [Example 41, 9-(1-(8-cyano-7-((cis-4-(trifluoromethyl)cyclohexyl)oxy)naphthalen-2-yl)propyl)-9-azabicyclo[3.3.1]nonane-3-carboxylic acid] was tested, and the pIC50 was at least 6.60.
In the case of N#Cc1c(O[C@H]2CC[C@@H](C(F)(F)F)CC2)ccc2ccc(CN3C4CCCC3CC(C(=O)O)C4)cc12 (stereo partly drawn) [Example 35, 9-((8-cyano-7-((cis-4-(trifluoromethyl)cyclohexyl)oxy)naphthalen-2-yl)methyl)-9-azabicyclo[3.3.1]nonane-3-carboxylic acid], the pIC50 was at least 6.60.
For CC(C)[C@H]1CC[C@@H](Oc2ccc3ccc(CN4C5CCC4CC(C(=O)O)C5)cc3c2C(F)(F)F)CC1 (stereo partly drawn) [Example 107, 8-((7-((cis-4-isopropylcyclohexyl)oxy)-8-(trifluoromethyl)naphthalen-2-yl)methyl)-8-azabicyclo[3.2.1]octane-3-carboxylic acid], the pIC50 was at least 7.00.
C[C@@H](c1ccc2ccc(O[C@H]3CC[C@@H](C(F)(F)F)CC3)c(C(F)(F)F)c2c1)N1C2CCC1CC(C(=O)O)C2 (stereo partly drawn) [Example 12a, 8-{(S)-1-[7-(cis-4-trifluoromethyl-cyclohexyloxy)-8-trifluoromethyl-naphthalen-2-yl]-ethyl}-8-aza-bicyclo[3.2.1]octane-3-carboxylic acid] showed a pIC50 of at least 6.30.
With CC(c1ccc2ccc(O[C@H]3CC[C@@H](C)CC3)c(Cl)c2c1)N1C2CCCC1CC(C(=O)O)C2 (stereo partly drawn) [Example 91, 9-(1-(8-chloro-7-((cis-4-methylcyclohexyl)oxy)naphthalen-2-yl)ethyl)-9-azabicyclo[3.3.1]nonane-3-carboxylic acid] the pIC50 was at least 6.60.
CC(c1ccc2ccc(O[C@H]3CC[C@@H](C)CC3)c(C#N)c2c1)N1C2CCCC1CC(C(=O)O)C2 (stereo partly drawn) [Example 102, 9-(1-(8-cyano-7-((cis-4-methylcyclohexyl)oxy)naphthalen-2-yl)ethyl)-9-azabicyclo[3.3.1]nonane-3-carboxylic acid] gave a pIC50 of at least 7.00.
C[C@H](c1ccc2ccc(O[C@H]3CC[C@@H](C(F)(F)F)CC3)c(C(F)(F)F)c2c1)N1C2CCCC1CC(C(=O)O)C2 (stereo partly drawn) [Example 137b, 9-((R)-1-(8-(trifluoromethyl)-7-((cis-4-(trifluoromethyl)cyclohexyl)oxy)naphthalen-2-yl)ethyl)-9-azabicyclo[3.3.1]nonane-3-carboxylic acid] gave a pIC50 of at least 7.00.
For CC[C@H]1CC[C@@H](Oc2ccc3ccc(C(C)N4C5CCCC4CC(C(=O)OC)C5)cc3c2C(F)(F)F)CC1 (stereo partly drawn) [Example 132, methyl 9-(1-(7-((cis-4-ethylcyclohexyl)oxy)-8-(trifluoromethyl)naphthalen-2-yl)ethyl)-9-azabicyclo[3.3.1]nonane-3-carboxylate], the pIC50 was at least 6.60.
For CCC(c1ccc2ccc(O[C@H]3CC[C@@H](C)CC3)c(C(F)(F)F)c2c1)N1C2CCC1CC(C(=O)O)C2 (relative stereo) [Example 18, 8-(1-(7-((cis-4-methylcyclohexyl)oxy)-8-(trifluoromethyl)naphthalen-2-yl)propyl)-8-azabicyclo[3.2.1]octane-3-carboxylic acid], the pIC50 was at least 6.60.
In the case of CC(c1cc2c(C(F)(F)F)c(O[C@H]3CC[C@@H](C(F)(F)F)CC3)ccc2cc1F)N1C2CCC1CC(C(=O)O)C2 (stereo partly drawn) [Example 140, 8-(1-(3-fluoro-8-(trifluoromethyl)-7-((cis-4-(trifluoromethyl)cyclohexyl)oxy)naphthalen-2-yl)ethyl)-8-azabicyclo[3.2.1]octane-3-carboxylic acid], the pIC50 was at least 7.00.
CC(c1ccc2ccc(O[C@H]3CC[C@@H](C(F)(F)F)CC3)c(C#N)c2c1)N1C2CCC1CC(C(=O)O)C2 (stereo partly drawn) [Example 37, 8-(1-(8-cyano-7-((cis-4-(trifluoromethyl)cyclohexyl)oxy)naphthalen-2-yl)ethyl)-8-azabicyclo[3.2.1]octane-3-carboxylic acid] was tested, and the pIC50 was at least 7.00.
In the case of CC(c1cc2c(C(F)(F)F)c(O[C@H]3CC[C@@H](C)CC3)ccc2cc1F)N1C2CCC1CC(C(=O)O)C2 (stereo partly drawn) [Example 139, 8-(1-(3-fluoro-7-((cis-4-methylcyclohexyl)oxy)-8-(trifluoromethyl)naphthalen-2-yl)ethyl)-8-azabicyclo[3.2.1]octane-3-carboxylic acid], the pIC50 was at least 7.00.
With C[C@H]1CC[C@@H](Oc2ccc3ccc(CN4C5CCC4CC(C(=O)O)C5)cc3c2C#N)CC1 (stereo partly drawn) [Example 96, 8-((8-cyano-7-((cis-4-methylcyclohexyl)oxy)naphthalen-2-yl)methyl)-8-azabicyclo[3.2.1]octane-3-carboxylic acid] the pIC50 was at least 6.60.
